Like-named read-outs stand apart in the source and are kept apart here.

Results on 3 compounds are retold here after patent US20260069538A1, “CXCR4 ANTAGONIST LOADED LIPOSOMES AND SILICASOMES” (The Regents of the University of California, priority 2021, published 2026).

Series [1] has as its system metastatic BC models (including 4T1). To be noted: in vivo; cited from earlier work.
The conditions of series [2]: for EE % / LC %: liposome DSPC:Chol:DSPE-PEG2000 3:2:0.15, drug feed ratio 20% (drug:lipids w/w).
Protocol: This was followed by incubating the liposome suspension in the suspended CXCR4 antagonists using a feed ratio of 20%. The non-incorporated drug was removed by a PD-10 column.
To perform the drug loading, Mavorixafor (MAV or AMD11070) was prepared as stock solution in PBS and added at 20% w/w over the total wt. of the lipids. The MAV/liposome mixed solution was then heated at 65° C. for 1 h then cooled at room temperature for 30 minutes. The separation of encapsulated liposomal MAV (L-MAV) and non-encapsulated MAV (free MAV) was again, through the use of PD10 size exclusion column.
The elution profile of the free MAV is pre-determined by eluting free MAV through the PD10 and measuring the UV absorbance for each elution fraction at λmax 275 nm. In a typical run a 95%+ MAV recovery will be found between 10-20 mL fractions. The free-MAV fractions was collected and combined to quantify the free-MAV by UV at λmax 275 nm. Again, the L-MAV was collected from elution 2.75-5.75 mL (3 mL in total), the free-MAV was collected from 10-20 mL fractions.
Based on the free-MAV quantification, the drug loading of L-MAV was back calculated by subtracting the free MAV from the initial MAV feeding=20% w/w. […] Based on the drug loaded L-MAV concentration (mg/mL), L-MAV was concentrated by using 50 mL VIVA-spin tubes at 30 kDa cut-off to a final concentration of 0.1 mg/mL (=0.5 mg/kg per 200 μL injection for a 20 g mouse).
Series [3] can be described thus: Remote loading of CXCR4 antagonists in silicasomes (encapsulation efficiency, loading capacity). The series is classed as physicochemical. To be noted: for EE % / LC %: silicasome. Here is the method: Following the application of a lipid bilayer, we used the weak basic properties of the of CXCR4 antagonists (AMD3100, AMD3465, AMD070) to attempt silicasome remote loading. To optimize the loading efficiency, two type of trapping agents, triethylammonium sucrose octasulfate (TEA8SOS) and ammonium sulfate ((NH4)2SO4) were tested. Briefly, for lipid coating, 40 mg/mL of the purified MSNPs were soaked in trapping agent solution (80 mM TEA8SOS or 300 mM (NH4)2SO4)) and were added to an ˜50% (w/v) lipids mixture (DSPC/Chol/DSPE-PEG2000, in the molar ratio of 3:2:0.15) solution in ethanol. The MSNP:lipid ratio was 1:1.25 (w/w). The suspension was sonicated using probe sonication (Ultrasonic Processor Model VCX130, 40% amplitude) at a 15 s/15 s on/off cycle.
The free trapping agent was removed through size exclusion chromatography using Sepharose CL-4B resin with a HEPES-buffered dextrose solution (5 mM HEPES, 5% dextrose, pH 6.5) for elution. For drug import, trapping agent-loaded particles were mixed with drug and incubated at 65° C. for 0.5 hour. The drug-laden silicasomes were purified by centrifugation to remove the free drug and liposomes; then filtered with a 0.2 μm membrane for sterilization. The drug concentration was determined by either UV spectroscopy or HPLC. Particle hydrodynamic size and zeta potential were measured by a ZETAPALS instrument (Brookhaven Instruments Corporation). The final product was visualized by cryoEM (TF20 FEI Tecnai-G2) to confirm the uniformity and integrity of the coated lipid bilayer.

The subject of the next series is human PDAC slices. To be noted: cited from earlier work.
The test system of the next series is X4 HIV strains. To be noted: read-out: inhibits the replication of X4 HIV strains (IC50); cited from earlier work.
Another series has as its system EMT6 tumors. Briefly: Orthotopic EMT6 breast cancer model. It is filed as in vivo, mouse (Balb/c).
Another series deals with 4T1 tumors. The series can be described thus: Orthotopic 4T1 TNBC tumor model. To be noted: for tumor shrinkage / tumor size: orthotopic 4T1, IV administration.
Another series concerns KPC tumors. Briefly: Orthotopic KPC model: tumor weight and immunophenotyping. The series is classed as in vivo, mice.
[4] abbreviates: (NH4)2SO4, drug feed ratio 50% (drug:MSNP w/w).
[5] abbreviates: TEA8SOS, drug feed ratio 50% (drug:MSNP w/w).
Setting [6] is: TEA8SOS, drug feed ratio 10% (drug:MSNP w/w).
Where [7] appears, read: TEA8SOS, drug feed ratio 20% (drug:MSNP w/w).

Description for 4T1 tumors: Orthotopic 4T1 tumors were established as described in FIGS. 2-4.

For `c1cc(CN2CCCNCCNCCCNCC2)ccc1CN1CCCNCCNCCCNCC1` [AMD3100, Plerixafor], in series [1], the CTL recruitment entry is on record as “increase CTL recruitment”, the blood perfusion entry is given as “improve blood perfusion”, the desmoplasia entry was “decrease desmoplasia” and the immunosuppression result is “decrease immunosuppression”. Moreover, the metastatic spread entry in series [1] is listed as “limit metastatic spread”. Besides, in series [2] ((NH4)2SO4), the EE % came out at 19% and the LC % turned out to be 3.8%. In addition, in series [2] (TEA8SOS), the EE % was determined as 42.4% and the LC % came to 8.5%. In series [3] (setting [4]), the EE % turned out to be 27% and the LC % came to 13.5%. Also, in series [3] (setting [5]), the EE % is reported as 51% and the LC % is recorded as 25.5%. In addition, the “CTL migration to the juxta-tumoral PDAC compartment” value in the series on human PDAC slices (tumor cell slices) was “improve CTL migration to the juxta-tumoral PDAC compartment”. In the series on human PDAC slices (tumor slice culture), the “CD8+ T-cell-mediated elimination of EpCAM+ PDAC cancer cells” value is reported as “did not exert similar effects”.

As to `c1ccc(CNCc2ccc(CN3CCCNCCNCCCNCC3)cc2)nc1` [AMD3465], the concentration for half-maximal inhibition (IC50) in the series on X4 HIV strains was 1 to 10 nM. Further, the EE % is given as 68.4% in series [2] ((NH4)2SO4), 37.4% in series [2] (TEA8SOS), 34.5% in series [3] (setting [4]) and 25% in series [3] (setting [5]). In addition, the LC % in series [2] ((NH4)2SO4) worked out at 13.7%; in series [2] (TEA8SOS) it was 7.5%; in series [3] (setting [4]), 17.3%; in series [3] (setting [5]) it was 12.5%.

On to `NCCCCN(Cc1nc2ccccc2[nH]1)[C@H]1CCCc2cccnc21` [AMD11070, Mavorixafor], for which the “tumor growth / tumor shrinkage” value with EMT6 tumors was “neither free nor L-AMD11070 were able to interfere in tumor growth”. For the same compound, the “T cell exclusion in the tumor margin (immunohistochemistry)” value in the series on 4T1 tumors (4T1 breast cancer tumors) is “interference in T cell exclusion in the margin”. Besides, the “CD8+ spatial distribution during mIHC analysis” value with 4T1 tumors (orthotopic 4T1) is reported as “failed to show a significant effect”. For the same compound, the “lung metastasis (IVIS imaging of explanted lungs)” value in the series with 4T1 tumors (orthotopic 4T1) is reported as “significant metastasis reduction”; in the series with 4T1 tumors (orthotopic 4T1, listed as free AMD11070), “significant impact on lung metastases”. Besides, the “tumor shrinkage / tumor size” value in the series on 4T1 tumors (listed as Free AMD11070) is reported as “leads to tumor shrinkage”; in the series with 4T1 tumors (listed as free AMD11070), “tumor shrinkage could be obtained”. The “CXCR4 staining intensity (immunohistochemistry)” value in the series on KPC tumors is “encapsulated but not free AMD11070 delivery could significantly increase CXCR4 staining intensity”. Besides, the EE % in series [2] ((NH4)2SO4) was found to be 55.8%; in series [2] (TEA8SOS) it was 84.3%; in series [3] (setting [4]) it was 68%; in series [3] (setting [6]), 95%; in series [3] (setting [7]) it was 85%; in series [3] (setting [5]) it was 70%. For the same compound, the LC % came out at 11.2% in series [2] ((NH4)2SO4); 16.9% in series [2] (TEA8SOS); 34% in series [3] (setting [4]); 9.5% in series [3] (setting [6]); 17% in series [3] (setting [7]); 35% in series [3] (setting [5]). Also, the “Typical MAV loading” value in series [2] (liposome, 240 mM (NH4)2SO4, MAV feeding 20% w/w, back calculated from free MAV) is listed as 8-15 % w/w. The “best loading capacity (LC) in liposomes” value in series [2] (liposomes) is recorded as 17%. The compound further registered a loading capacity in series [3] (silicasome in which sucrose sulfate was used (FIG. 11)) of 20%.
